Literature values, collected in patent publication US6476002B1 (priority 1997, dated 2002).

Tests used:
[1] = system: rats with collagen arthritis; conditions: reported by Peacock et al. 1992
wound healing = conditions: from literature / copending application

CO[C@@H]1[C@H](OC(=O)NC(=O)CCl)CC[C@]2(CO2)[C@H]1[C@@]1(C)O[C@@H]1CC=C(C)C [AGM-1470]
joint swelling in rats with collagen arthritis [1]: reduces joint swelling | effect on wound healing (wound healing): inhibits wound healing
